The results in this text go back to patent USRE47689E1, “Compounds for treating spinal muscular atrophy” (PTC Therapeutics, Inc., priority 2011, dated 2019).

The test system of data set [1] is SMN2 minigene (full length SMN2 minigene mRNA containing SMN2 exon 7). The data set can be described thus: SMN2 minigene mRNA splicing RT-qPCR assay in cultured cells. It is filed as cell-based, human. Particulars: Homo sapiens, HEK293-H; HEK293H cells stably transfected with SMN2-A minigene; 24 hours; 7-point concentration curve; 1.5-fold relative to vehicle-treated cells; read-out: EC1.5x for production of full length SMN2 mRNA. In short, it runs like this: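 Read-out: full-length (exon 7-included) SMN2 minigene mRNA by multiplex RT-qPCR with GAPDH, efficiency-corrected (1+E)^−Ct, GAPDH-normalized and divided by vehicle. Stably transfected HEK293H cells, 24 h compound exposure, duplicates per concentration. Value is EC1.5x, reported as star ranges.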
(In general: In qPCR the cycle at which signal appears reflects the starting amount.)

Another data set relates to Smn protein. The experiment in a line: Smn protein assay in cultured cells (SMN HTRF). The class given is cell-based, human. Particulars: 48 hours; for maximum fold (Fold) increase of Smn protein: SMA patient fibroblast cells, 7-point concentration data, fold increase relative to vehicle control (SMN HTRF); for EC1.5x (concentration giving 1.5-fold Smn protein increase): SMA Type 1 patient fibroblast cells (GM03813), 7-point concentration curve, SMN HTRF, concentration producing 1.5 times Smn protein vs DMSO vehicle control, read-out: EC1.5x for Smn protein expression. The method, boiled down:
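Lysates in RIPA with protease inhibitors are incubated overnight at room temperature with HTRF anti-SMN antibodies. EC1.5x is derived from fold increase in ΔF over vehicle.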
Background: In TR-FRET formats the signal depends on donor and acceptor labels being close together.

For `C[C@@H]1CN(c2ccc3cc(-c4ccc5c(c4)OCO5)c(=O)oc3c2)C[C@H](C)N1` [Compound 487, 3-(1,3-benzodioxol-5-yl)-7-[(3R,5S)-3,5-dimethylpiperazin-1-yl]-2H-chromen-2-one], the melting point fell in the range of 123 to 125 °C. Moreover, the EC (1.5-fold) in data set [1] lay within 3 to 30 µM. Besides, the “maximum fold (Fold) increase of Smn protein” value (shortened to “maximum fold (Fold) increase”) in the data set on Smn protein is reported as “* (maximum fold increase of ≤1.2)”.
For `C[C@H]1CN(c2ccc3cc(-c4cccc(F)c4F)c(=O)oc3c2)CCN1` [Compound 546, 3-(2,3-difluorophenyl)-7-[(3S)-3-methylpiperazin-1-yl]-2H-chromen-2-one], in that order: 116 to 118 °C, 3 to 30 µM and “* (maximum fold increase of ≤1.2)”.
Turning to `O=c1oc2cc(N3CCCNCC3)ccc2cc1-c1cn2cccc(F)c2n1` [Compound 357, 7-(1,4-diazepan-1-yl)-3-(8-fluoroimidazo[1,2-a]pyridin-2-yl)-2H-chromen-2-one], the melting point was 210 to 213 °C. The EC (1.5-fold) in data set [1] was 0.1 to 0.3 µM. Also, the “maximum fold (Fold) increase” value in the data set with Smn protein was “*** (fold increase between >1.35 and ≤1.5)”.
`Cc1cnc2nc(-c3cc4ccc(O[C@@H]5CCNC5)cc4oc3=O)cn2c1.Cl.Cl` [Compound 327, 3-(6-methylimidazo[1,2-a]pyrimidin-2-yl)-7-[(3R)-pyrrolidin-3-yloxy]-2H-chromen-2-one hydrochloride (1:2)] registered a melting point of 255 to 258 °C. The EC (1.5-fold) in data set [1] fell in the range of 0.3 to 1 µM. For the same molecule, the “maximum fold (Fold) increase” value in the data set with Smn protein was “** (fold increase between >1.2 and ≤1.35)”.
Consider `O=c1oc2cc(N3CCN4CCC[C@H]4C3)ccc2cc1-c1cn2cccc(F)c2n1` [Compound 528, 3-(8-fluoroimidazo[1,2-a]pyridin-2-yl)-7-[(8aS)-hexahydropyrrolo[1,2-a]pyrazin-2(1H)-yl]-2H-chromen-2-one], for which the melting point was 235 to 238 °C. For the same molecule, the EC (1.5-fold) in data set [1] was in the range of 1 to 3 µM. Further, the “maximum fold (Fold) increase” value in the data set with Smn protein is “** (fold increase between >1.2 and ≤1.35)”.
The molecule `Cc1cn2cc(-c3cc4ccc(C5CCN(CCO)CC5)cc4oc3=O)nc2cn1` [Compound 843, 7-[1-(2-hydroxyethyl)piperidin-4-yl]-3-(6-methylimidazo[1,2-a]pyrazin-2-yl)-2H-chromen-2-one] yielded a melting point of 230 to 236 °C. For the same molecule, the EC (1.5-fold) in data set [1] is < 0.1 µM. In the data set with Smn protein, the EC1.5x (concentration giving 1.5-fold Smn protein increase) is < 300 nM; the “maximum fold (Fold) increase” value was “**** (fold increase between >1.5 and ≤1.65)”.
Molecule `CCN(CCO)CCOc1ccc2cc(-c3cn4cc(C)nc(C)c4n3)c(=O)oc2c1` [Compound 938, 3-(6,8-dimethylimidazo[1,2-a]pyrazin-2-yl)-7-{2-[ethyl(2-hydroxyethyl)amino]ethoxy}-2H-chromen-2-one] displayed a melting point of 165 to 168 °C. Moreover, the EC (1.5-fold) in data set [1] is < 0.1 µM. For the same molecule, in the data set with Smn protein, the EC1.5x (concentration giving 1.5-fold Smn protein increase) is < 300 nM and the “maximum fold (Fold) increase” value is recorded as “***** (fold increase >1.65)”.
In the case of `C[C@@H]1CN(c2ccc3cc(-c4cn5cc(C6CC6)cc(F)c5n4)c(=O)oc3c2)C[C@H](C)N1` [Compound 497, 3-(6-cyclopropyl-8-fluoroimidazo[1,2-a]pyridin-2-yl)-7-[(3R,5S)-3,5-dimethylpiperazin-1-yl]-2H-chromen-2-one], the melting point is 257 to 267 °C. Further, the EC (1.5-fold) in data set [1] was in the range of 0.3 to 1 µM. Also, the “maximum fold (Fold) increase” value in the data set on Smn protein was “* (maximum fold increase of ≤1.2)”.
Regarding `Cc1nccn2cc(-c3cc4ccc(O[C@@H]5CCNC5)cc4oc3=O)nc12` [Compound 610, 3-(8-methylimidazo[1,2-a]pyrazin-2-yl)-7-[(3R)-pyrrolidin-3-yloxy]-2H-chromen-2-one], the melting point was in the range of 220 to 230 °C. In addition, in data set [1], the EC (1.5-fold) fell in the range of 0.3 to 1 µM. For the same molecule, the “maximum fold (Fold) increase” value in the data set on Smn protein was “** (fold increase between >1.2 and ≤1.35)”.

Broadly, the melting point is the temperature of the solid-liquid transition.
